Patent US20240368096A1 (Enanta Pharmaceuticals, Inc., priority 2022, published 2024)

Test system: HBV
Test: HBV infection in HepG2-NTCP cells (HBeAg AlphaLISA in supernatants)
Type: cell-based
Conditions: Hepatitis B virus, 192 h; HBV infection of HepG2-NTCP cells; HBeAg in supernatants at day 8 post infection; read-out: Cellular EC50
Method in brief: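 Readout was day-8 supernatant HBeAg by AlphaLISA, with EC50 set against DMSO controls and binned A<0.1 μM, B 0.1-1 μM, C>1 μM. Compounds were added 2 h before HBV (2000 GE/cell, 4% PEG, 0.5% DMSO) to HepG2-NTCP A3 cells; from day 1 medium held 2.5% DMSO.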

| EC50 [nM] | Structure (SMILES) |
| --- | --- |
| < 100 | CN1[C@H](C2CCCCC2)CN(c2ccccc2)c2cc(Cl)c(-c3ccc(O)c(C(=O)O)c3)cc2S1(=O)=O [Example 156, (R)-5-(7-chloro-3-cyclohexyl-2-methyl-1,1-dioxido-5-phenyl-2,3,4,5-tetrahydrobenzo[f][1,2,5]thiadiazepin-8-yl)-2-hydroxybenzoic acid] |
| 100 to 1000 | CN1[C@H](C2CCCCC2)CN(c2ccccc2)c2cc(Cl)c(-c3cc(C(=O)O)ncn3)cc2S1(=O)=O [Example 140, (R)-6-(7-chloro-3-cyclohexyl-2-methyl-1,1-dioxido-5-phenyl-2,3,4,5-tetrahydrobenzo[f][1,2,5]thiadiazepin-8-yl)pyrimidine-4-carboxylic acid] |
| 100 to 1000 | CN1[C@H](C2CCCCC2)CNc2cc(-c3cccnc3)c(-c3ccc(F)c(C(=O)O)c3)cc2S1(=O)=O [Example 572] |
| < 100 | COc1cc(-c2cc3c(cc2Cl)N(c2ccccc2)C[C@@H](C2CCCCC2)N(C)S3(=O)=O)sc1C(=O)O [Example 118] |
| 100 to 1000 | CN1[C@H](C2CCCCC2)CN(c2ccccc2)c2cc(C3CCN(C(=O)OC(C)(C)C)C3)c(-c3ccc(F)c(C(=O)O)c3)cc2S1(=O)=O (stereo partly shown) [Example 593] |
| 100 to 1000 | CN1[C@H](C2CCCCC2)CN(c2cncnc2)c2cc(Cl)c(-c3ccc(F)c(C(=O)O)c3)cc2S1(=O)=O [Example 286] |
| > 1000 | CCCCCCCC[C@@H]1CN(c2ccccc2)c2cc(Cl)c(-c3ccc(C(=O)O)s3)cc2S(=O)(=O)N1C [Example 84] |
| < 100 | CCCCCOc1cc2c(cc1-c1ccc(F)c(C(=O)O)c1)S(=O)(=O)N(C)[C@H](C1CCCCC1)CN2c1ccccc1 [Example 351] |
| 100 to 1000 | Cc1sc(-c2cc3c(cc2Cl)N(c2ccccc2)C[C@@H](C2CCCCC2)N(C)S3(=O)=O)nc1C(=O)O [Example 125] |
| < 100 | CCCC[C@@H]1CN(c2ccccc2)c2cc(Oc3cccc(Cl)c3)c(-c3ccc(F)c(C(=O)O)c3)cc2S(=O)(=O)N1C [Example 423] |
| > 1000 | CN1[C@H](CN2CCC(F)(F)CC2)CN(c2ccccc2)c2cc(Cl)c(-c3ccc(F)c(C(=O)O)c3)cc2S1(=O)=O [Example 113] |
| 100 to 1000 | CN1[C@H](C2CCCCC2)CN(c2ccccc2)c2cc(Cl)c(-c3cc(C(=O)O)c4ncccc4c3)cc2S1(=O)=O [Example 210] |
| > 1000 | O=C(O)c1cccc(-c2cc3c(cc2F)N(c2ccccc2)C[C@@H]2C[C@H](C(F)(F)F)CN2S3(=O)=O)c1 [Example 11] |
| > 1000 | CC(=O)N1CCC(c2cc3c(cc2-c2ccc(F)c(C(=O)O)c2)S(=O)(=O)N(C)[C@H](C2CCCCC2)CN3c2ccccc2)CC1 [Example 597] |
| 100 to 1000 | CN1[C@H](c2cccc(F)c2)CN(c2ccccc2)c2cc(Cl)c(-c3ccc(F)c(C(=O)O)c3)cc2S1(=O)=O [Example 55] |
| 100 to 1000 | CN1[C@H](C2CCC(F)(F)CC2)CN(c2ccccc2)c2cc(Cl)c(-c3ccc(F)c(C(=O)O)c3)cc2S1(=O)=O [Example 27] |
| 100 to 1000 | CN1C(C23CC(C2)C3)CN(c2ccccc2)c2cc(Cl)c(-c3ccc(F)c(C(=O)O)c3)cc2S1(=O)=O (stereo not shown) [Example 86] |
| 100 to 1000 | CCCCC[C@@H](C)Oc1cc2c(cc1-c1cc(F)c(C(=O)O)s1)S(=O)(=O)N(C)[C@H](C1CCCCC1)CN2c1ccccc1 [Example 491] |
| < 100 | CCCC[C@@H]1CN(c2ccccc2)c2cc(Nc3ccccc3F)c(-c3ccc(F)c(C(=O)O)c3)cc2S(=O)(=O)N1C [Example 522] |
| < 100 | CC(C)C[C@@H]1CN(c2ccccc2)c2cc(Oc3ccccc3F)c(-c3ccc(F)c(C(=O)O)c3)cc2S(=O)(=O)N1C [Example 429] |
| > 1000 | CC(C)C[C@@H]1CN(c2ccccc2)c2cc(OCCN(C)C)c(-c3ccc(F)c(C(=O)O)c3)cc2S(=O)(=O)N1C [Example 451] |
| > 1000 | CC1CN(c2ccccc2)c2cc(C#N)c(-c3cccc(C(=O)O)c3)cc2S(=O)(=O)N1C (stereo not shown) [Example 12, 3-(7-cyano-2,3-dimethyl-1,1-dioxido-5-phenyl-2,3,4,5-tetrahydrobenzo[f][1,2,5]thiadiazepin-8-yl)benzoic acid] |
